ChEMBL document CHEMBL6074683, “Design, synthesis and investigation of biological activity and mechanism of fluoroaryl-substituted derivatives at the FL118 position 7” (Eur J Med Chem, 2025)
The source made the active and inactive calls. No cut-off for these calls is given here.

Experiments:
HCT-116 [1] = test: Cytotoxicity against human HCT-116 cells incubated for 72 hrs by MTT assay; assay type: functional, cell-based; conditions: HCT-116, 72 h
A549 = test: Cytotoxicity against human A549 cells incubated for 72 hrs by MTT assay; assay type: functional, cell-based; conditions: A549, 72 h
HeLa = test: Cytotoxicity against human HeLa cells incubated for 72 hrs by MTT assay; assay type: functional, cell-based
HepG2 = test: Cytotoxicity against human HepG2 cells incubated for 72 hrs by MTT assay; assay type: functional, cell-based; conditions: HepG2, 72 h
HCT-116 [2] = test: Downregulation of DDX5 protein expression in human HCT-116 cells at 100 nM incubated upto 72 hrs by Western blotting assay; assay type: functional, cell-based
[3] = Toxicity in SCID mouse assessed as change in body weight at 2 to 15 mg/kg, ip administered weekly for 4 weeks; assay type: organism-based; conditions: in vivo, 672 h, dose 2-15 mg/kg
PDX27454 [4] = test: Antitumor activity against human PDX27454 cells xenografted in SCID mouse at 2 to 15 mg/kg, ip administered weekly for 4 weeks; assay type: functional, organism-based; conditions: dose 2-15 mg/kg
HCT-116 [5] = test: Induction of apoptosis in human HCT-116 cells assessed as early apoptotic cells at 2.5 nM incubated for 48 hrs by PI/Annexin V-FITC staining based flow cytometry assay (reference value: 0.27%); assay type: functional
[6] = biological target: T1, DNA topoisomerase 1 (Homo sapiens) (UniProt P11387); test: Inhibition of topoisomerase 1 (unknown origin) using pBR322 DNA as substrate in presence of DDX5 by ethidium bromide staining based agarose gel electrophoresis method
T1 sequence (whole entry): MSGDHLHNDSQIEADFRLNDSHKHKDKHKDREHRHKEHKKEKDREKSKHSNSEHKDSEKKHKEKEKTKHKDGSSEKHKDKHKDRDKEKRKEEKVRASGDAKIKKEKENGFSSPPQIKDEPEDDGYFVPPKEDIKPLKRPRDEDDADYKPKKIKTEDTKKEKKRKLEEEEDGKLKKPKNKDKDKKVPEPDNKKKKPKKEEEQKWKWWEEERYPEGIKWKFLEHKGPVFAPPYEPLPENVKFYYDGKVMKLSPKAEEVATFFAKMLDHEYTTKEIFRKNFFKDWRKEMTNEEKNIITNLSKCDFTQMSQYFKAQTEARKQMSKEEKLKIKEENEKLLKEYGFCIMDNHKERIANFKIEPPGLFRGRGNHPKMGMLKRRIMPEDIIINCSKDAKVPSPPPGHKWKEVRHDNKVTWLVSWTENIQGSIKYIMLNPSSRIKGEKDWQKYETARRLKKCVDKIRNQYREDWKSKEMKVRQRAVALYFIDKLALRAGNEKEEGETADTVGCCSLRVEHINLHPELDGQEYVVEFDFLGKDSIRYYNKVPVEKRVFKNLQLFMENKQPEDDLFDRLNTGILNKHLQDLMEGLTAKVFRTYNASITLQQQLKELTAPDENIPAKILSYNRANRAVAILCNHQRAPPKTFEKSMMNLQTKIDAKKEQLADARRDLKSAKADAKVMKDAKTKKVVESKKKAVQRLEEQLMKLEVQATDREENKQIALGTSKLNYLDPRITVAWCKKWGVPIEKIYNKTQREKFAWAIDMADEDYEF

HCT-116 [7] = test: Upregulation of Bax protein level in human HCT-116 cells incubated for 72 hrs by Western blotting assay; assay type: functional, cell-based; conditions: dose 50-100 nM
HCT-116 [8] = test: Induction of apoptosis in human HCT-116 cells assessed as early apoptotic cells at 50 nM incubated for 48 hrs by PI/Annexin V-FITC staining based flow cytometry assay (reference value: 0.27%); assay type: functional
HCT-116 [9] = test: Downregulation of survivin protein level in human HCT-116 cells at 50 to 100 nM incubated for 72 hrs by Western blotting assay; assay type: functional, cell-based; conditions: dose 50-100 nM
HCT-116 [10] = test: Induction of apoptosis in human HCT-116 cells assessed as viable cells at 2.5 nM incubated for 48 hrs by PI/Annexin V-FITC staining based flow cytometry assay (reference value: 93%); assay type: functional; conditions: read-out: Activity
HCT-116 [11] = test: Induction of apoptosis in human HCT-116 cells assessed as necrotic cells at 10 nM incubated for 48 hrs by PI/Annexin V-FITC staining based flow cytometry assay (reference value: 2.58%); assay type: functional
HCT-116 [12] = test: Induction of apoptosis in human HCT-116 cells assessed as necrotic cells at 2.5 nM incubated for 48 hrs by PI/Annexin V-FITC staining based flow cytometry assay (reference value: 2.58%); assay type: functional
HCT-116 [13] = test: Induction of apoptosis in human HCT-116 cells assessed as late apoptotic cells at 50 nM incubated for 48 hrs by PI/Annexin V-FITC staining based flow cytometry assay (reference value: 4.02%); assay type: functional
[14] = biological target: T1, DNA topoisomerase 1 (Homo sapiens); test: Inhibition of topoisomerase 1 (unknown origin) assessed as reduction in nicking of supercoiled DNA at 5 to 50 uM using pBR322 DNA as substrate by ethidium bromide staining based agarose gel electrophoresis method; conditions: dose 5-50 µM
PDX27454 [15] = test: Antitumor activity against human PDX27454 cells xenografted in ip dosed SCID mouse administered weekly for 4 weeks and measured after 35 days; assay type: functional, organism-based; conditions: dose 2-15 mg/kg
HCT-116 [16] = test: Induction of apoptosis in human HCT-116 cells assessed as viable cells at 10 nM incubated for 48 hrs by PI/Annexin V-FITC staining based flow cytometry assay (reference value: 93%); assay type: functional; conditions: read-out: Activity
HCT-116 [17] = test: Induction of apoptosis in human HCT-116 cells assessed as late apoptotic cells at 10 nM incubated for 48 hrs by PI/Annexin V-FITC staining based flow cytometry assay (reference value: 4.02%); assay type: functional
HCT-116 [18] = test: Induction of ROS generation in human HCT-116 cells incubated for 72 hrs by DCFH-DA staining based assay; assay type: functional, cell-based; conditions: dose 5-100 nM
HCT-116 [19] = test: Induction of apoptosis in human HCT-116 cells assessed as viable cells at 50 nM incubated for 48 hrs by PI/Annexin V-FITC staining based flow cytometry assay (reference value: 93%); assay type: functional; conditions: read-out: Activity
HCT-116 [20] = test: Downregulation of XIAP protein level in human HCT-116 cells at 50 to 100 nM incubated for 72 hrs by Western blotting assay; assay type: functional, cell-based; conditions: dose 50-100 nM
HCT-116 [21] = test: Induction of apoptosis in human HCT-116 cells assessed as necrotic cells at 50 nM incubated for 48 hrs by PI/Annexin V-FITC staining based flow cytometry assay (reference value: 2.58%); assay type: functional
HCT-116 [22] = test: Induction of ROS generation in human HCT-116 cells incubated for 12 hrs by DCFH-DA staining based assay; assay type: functional, cell-based
[23] = biological target: T1, DNA topoisomerase 1 (Homo sapiens); test: Inhibition of topoisomerase 1 (unknown origin) using pBR322 DNA as substrate by ethidium bromide staining based agarose gel electrophoresis method
PDX27454 [24] = test: Antitumor activity against human PDX27454 cells xenografted in SCID mouse at 15 mg/kg, ip administered weekly for 4 weeks; assay type: functional, organism-based
HCT-116 [25] = test: Upregulation of gammaH2AX protein level in human HCT-116 cells incubated for 72 hrs by Western blotting assay; assay type: functional, cell-based; conditions: dose 50-100 nM
HCT-116 [26] = test: Induction of apoptosis in human HCT-116 cells assessed as early apoptotic cells at 10 nM incubated for 48 hrs by PI/Annexin V-FITC staining based flow cytometry assay (reference value: 0.27%); assay type: functional
HCT-116 [27] = test: Induction of apoptosis in human HCT-116 cells assessed as late apoptotic cells at 2.5 nM incubated for 48 hrs by PI/Annexin V-FITC staining based flow cytometry assay (reference value: 4.02%); assay type: functional
HCT-116 [28] = test: Inhibition of colony formation in human HCT-116 cells incubated for 12 hrs by crystal violet staining based assay; assay type: functional, cell-based; conditions: dose 5-25 nM
[29] = biological target: T1, DNA topoisomerase 1 (Homo sapiens); test: Inhibition of topoisomerase 1 (unknown origin) assessed as reduction in nicking of supercoiled DNA at 0.05 to 0.5 uM using pBR322 DNA as substrate by ethidium bromide staining based agarose gel electrophoresis method; conditions: dose 0.05-0.5 µM
HCT-116 [30] = test: Downregulation of Bcl-2 protein level in human HCT-116 cells at 50 to 100 nM incubated for 72 hrs by Western blotting assay; assay type: functional, cell-based; conditions: dose 50-100 nM
[31] = Apparent permeability across apical to basolateral side in human Caco-2 cells measured upto 120 mins by LC-MS/MS method; assay type: ADME, cell-based
[32] = Efflux ratio of apparent permeability across basolateral to apical over apical to basolateral side in human Caco-2 cells; assay type: ADME, cell-based

SMILES: CC[C@@]1(O)C(=O)OCc2c1cc1n(c2=O)Cc2c-1nc1cc3c(cc1c2-c1ccc(OC(F)(F)F)cc1)OCO3
- IC50 (HCT-116 [1]): 196 nM
- IC50 (A549): 87.3 nM
- IC50 (HeLa): 398 nM
- IC50 (HepG2): 229 nM

SMILES: CCc1c2c(nc3ccc(O)cc13)-c1cc3c(c(=O)n1C2)COC(=O)[C@]3(O)CC [7-ETHYL-10-HYDROXYCAMPTOTHECIN]
- Activity (HCT-116 [2]): inactive
- IC50 (HCT-116 [1]): 367 nM
- IC50 (A549): 475 nM
- IC50 (HeLa): 234 nM
- IC50 (HepG2): 268 nM

SMILES: CC[C@@]1(O)C(=O)OCc2c1cc1n(c2=O)Cc2c-1nc1cc3c(cc1c2-c1cc(C)cc(F)c1)OCO3
- IC50 (HCT-116 [1]): 41.4 nM
- IC50 (A549): 30.6 nM
- IC50 (HeLa): 56.5 nM
- IC50 (HepG2): 56 nM

SMILES: CC[C@@]1(O)C(=O)OCc2c1cc1n(c2=O)Cc2c-1nc1cc3c(cc1c2-c1cc(F)cc(F)c1)OCO3
- Activity [3]: Non-toxic
- IC50 (HCT-116 [1]): 48 nM
- IC50 (A549): 49.5 nM
- IC50 (HeLa): 35.6 nM
- Activity (PDX27454 [4]): Active
- IC50 (HepG2): 41.4 nM

SMILES: CC[C@@]1(O)C(=O)OCc2c1cc1n(c2=O)Cc2c-1nc1cc3c(cc1c2-c1cc(F)cc(OC)c1)OCO3
- IC50 (HCT-116 [1]): 66.9 nM
- IC50 (A549): 15.5 nM
- IC50 (HeLa): 124 nM
- IC50 (HepG2): 48.5 nM

SMILES: CC[C@@]1(O)C(=O)OCc2c1cc1n(c2=O)Cc2c-1nc1cc3c(cc1c2-c1ccc(F)c(OC)c1)OCO3
- Activity (HCT-116 [5]): 0.64%
- Activity [6]: Active
- Activity (HCT-116 [7]): Active
- Activity (HCT-116 [8]): 0.78%
- Activity (HCT-116 [9]): Active
- Activity (HCT-116 [2]): inactive
- viability at 0.0025 µM (HCT-116 [10]): 84.4%
- Activity (HCT-116 [11]): 4.17%
- Activity [3]: Non-toxic
- Activity (HCT-116 [12]): 4.13%
- Activity (HCT-116 [13]): 25.9%
- Activity [14]: Active
- Activity (PDX27454 [15]): Dose-dependent-effect
- viability at 0.01 µM (HCT-116 [16]): 79%
- Activity (HCT-116 [17]): 16.3%
- Activity (HCT-116 [18]): Dose-dependent-effect
- viability at 0.05 µM (HCT-116 [19]): 67.5%
- Activity (PDX27454 [4]): Active
- Activity (HCT-116 [20]): Active
- Activity (HCT-116 [21]): 5.94%
- Activity (HCT-116 [22]): inactive
- inhibition [23]: Active
- Activity (PDX27454 [24]): Active
- Activity (HCT-116 [25]): Active
- Activity (HCT-116 [26]): 0.5%
- Activity (HCT-116 [27]): 10.9%
- inhibition (HCT-116 [28]): Dose-dependent-effect
- Activity [29]: inactive
- Activity (HCT-116 [30]): Active

SMILES: CC[C@@]1(O)C(=O)OCc2c1cc1n(c2=O)Cc2cc3cc4c(cc3nc2-1)OCO4
- IC50 (HCT-116 [1]): 66.5 nM
- Papp A→B at 2 h [31]: 6.97 ×10⁻⁶ cm/s
- IC50 (A549): 81.8 nM
- IC50 (HeLa): 34.7 nM
- efflux ratio [32]: 1.2
- IC50 (HepG2): 68.5 nM

SMILES: CC[C@@]1(O)C(=O)OCc2c1cc1n(c2=O)Cc2c-1nc1cc3c(cc1c2-c1ccc(OC)c(F)c1)OCO3
- IC50 (HCT-116 [1]): 43.2 nM
- IC50 (A549): 70.2 nM
- IC50 (HeLa): 24.3 nM
- IC50 (HepG2): 172 nM
